Measurements published in patent US20230057984A1, “NORMALIZATION OF CULTURE OF CORNEAL ENDOTHELIAL CELLS” (KYOTO PREFECTURAL PUBLIC UNIVERSITY CORPORATION, priority 2011, published 2023).

How the values were obtained:
[1] = system: Human corneal endothelial cells; assay: Immunostaining and Western blot of Na+/K+-ATPase and ZO-1 in human corneal endothelial cells with SB431542 (FIG. 9A A, B); assay type: cell-based; settings: HCEC
Method: For tissue staining examination, cultured MCECs or HCECs were put into Lab-Tek™ Chamber Slides™ (NUNC A/S, Roskilde, Denmark), fixed with 4% formaldehyde for 10 minutes at a room temperature (RT), and incubated for 30 minutes with 1% bovine serum albumin (BSA). Specifically, cultured MCECs or HCECs on the Lab-Tek™ Chamber Slides™ (NUNCA/S, Roskilde, Denmark) were fixed at a room temperature for 10 minutes in 4% formaldehyde, followed by incubation for 30 minutes together with 1% bovine serum albumin (BSA). In order to examine the phenotype of CEC, immunohistochemical analysis was directed to a protein associated with tight junction, ZO-1 (Zymed Laboratories, Inc., South San Francisco, Calif.), a protein associated with the pumping function, Na^+/K^+-ATPase (Upstate Biotec, Inc., Lake Placid, N.Y.), fibronectin (BD, Franklin Lakes, N.J.), and actine. As markers associated with the function of CEC, ZO-1 and Na^+/K^+-ATPase were used; fibronectin and type 1 collagen were used to evaluate the change in a fibroblastic manner; and staining of actine was used to evaluate the phenotype of the cells. Staining of ZO-1, Na^+/K^+-ATPase, type 1 collagen and fibronectin was each performed using 1:200 dilution of ZO-1 polyclonal antibody, Na^+/K^+-ATPase monoclonal antibody, and fibronectin monoclonal antibody. As to secondary antibody, 1:2000 dilution of Alexa Fluor (registered trademark) 488 label or Alexa Fluor (registered trademark) 594 label goat antimouse IgG (Life Technologies) was used. Staining of actine was performed using 1:400 dilution of Alexa Fluor (registered trademark) 488 label phalloidin (Life Technologies). […] Next, the slides were observed through a fluorescence microscope (TCS SP2 AOBS; Leica Microsystems, Welzlar, Germany).
Next, reaction was allowed for 1 hour at a room temperature with ALEXA FLUOR 488 (INVITROGEN (catalog number: A21206)) and ALEXA FLUOR 594 (INVITROGEN (catalog number: A21203)), diluted with TBS-T by 1,000 fold. […] After washing, bands were detected using an ECL-ADVAVCE Western Blotting Detection Kit (GE healthcare Japan (catalog number: RPN2135V)). […]

[2] = system: HCEC; assay: Consecutive treatments of cultured HCEC over several passages, observation of harmful effects; settings: even after several passages

NC(=O)c1ccc(-c2nc(-c3ccc4c(c3)OCO4)c(-c3ccccn3)[nH]2)cc1 [SB431542]
expression of Na+/K+-ATPase and ZO-1 (immunostaining) ([1]; 1 μM SB431542, in normal culture medium only a subpopulation of cells): expression was recognized in all the cells
intracellular localization of Na+/K+-ATPase and ZO-1 ([1]; SB431542): allows for the intracellular localization of Na^+/K^+-ATPase and ZO-1 in a cell membrane
protein expression of Na+/K+-ATPase and ZO-1 (Western blot) ([1]; SB431542 0.1 μM, 1 μM, 10 μM): makes it possible to maintain the protein expression thereof
harmful effects with regard to the forms or functions [2]: not seen any clear, harmful effects
